From paper PMC8704606, “The Artemiside-Artemisox-Artemisone-M1 Tetrad: Efficacies against Blood Stage P. falciparum Parasites, DMPK Properties, and the Case for Artemiside” (Pharmaceutics, 2021)
Like-named read-outs stand apart in the source and are kept apart here.

Columns and labels:
[1] = Pharmacokinetics and metabolism after iv and po administration; assay type: in vivo; conditions: for half-life: read-out: t½ (converted); for MRT last: read-out: MRT0-last; for AUC(0-t): up to 7 h
Procedure: The plasma concentration-time profiles of the parent compounds and metabolites after administration iv and po to male C57/BL6 mice are presented in Figure 2, Figure 3 and Figure 4. Artemiside was quantifiable up to 24 h in all mice dosed iv and up to 7 h po (lower limit of quantitation LLOQ = 1.6 ng/mL or 0.004 μM) (Figure 2). […] For both artemiside and artemisox, the metabolite artemisone was quantifiable up to 3 h in both the po and iv groups (Figure 2 and Figure 3). Thereby it is confirmed that artemiside is rapidly converted via artemisox into artemisone. Artemisone itself was quantifiable up to three hours post dose (Figure 4). The mean circulating concentrations for the compounds and their metabolites are presented in Table S3a–f in the Supplementary Material 1. The metabolite M1 was also detected upon administration of artemiside, artemisox, and artemisone, but it was not quantified here; chromatograms indicating the presence of M1 are illustrated in Figure S3a–c in the Supplementary Material 1. In addition, the plasma concentration-time curves for artemiside and its metabolites artemisone and M1 following iv and po dosing in the same murine model are presented and discussed in detail elsewhere (cf. Figure 4 in reference).
All work was conducted with prior approval of the animal ethics committee of the University of Cape Town in accordance with the South African National Standards for the Care and Use of Animals for Scientific Purposes and guidelines from the South African Department of Health. The requirements and methods for the pharmacokinetics in vivo involving po and iv drug administration, sample extraction, analyses of samples by LC-MS/MS, and data analyses are described elsewhere. For the animal experiments and formulations, the compounds were dissolved in a 10:60:30 mixture of N,N-dimethylacetamide-polypropylene glycol-polyethylene glycol for intravenous dosing (iv) at 5 mg/kg. For the oral dose (po), compounds were individually dosed as a suspension in 0.5% (w/v) hydroxypropylmethylcellulose in water with 0.2% Tween80 at 50 mg/kg to male C57/BL6 mice (n = 3 for each group). For PK sampling, blood samples were collected at predetermined times (0.08, 0.25, 0.5, 1, 3, 5, 7, and 24 h) for both po and iv dosing via tail bleeding into heparinized tubes, centrifuged, and the plasma samples were stored at −80 °C until extraction. For preparation of samples, the frozen plasma samples were thawed and 15 μL was extracted by liquid–liquid extraction using a universal buffer (pH8) containing 10 ng/mL of the internal standard and ethyl acetate, and the extract was vortexed and centrifuged. Calibration standards and quality controls were extracted following the same procedure. Supernatants were dried down, reconstituted, and injected onto the column for LC-MS/MS analysis using an AB SCIEX 5500 QTRAP instrument coupled to an Agilent 1260 HPLC detection system as previously described.

[2] = system: CQ-resistant P. yoelii NS strain; conditions: cited from earlier work
Toxoplasma gondii (Tg) = system: Toxoplasma gondii (Tg); parameters: method as in PMID 19635951; conditions: read-out: EC50 against Tg in vitro; cited from earlier work
[3] = system: CQ-sensitive P. berghei N strain; conditions: cited from earlier work
[4] = Cytotoxicity (LDH assay) against HepG2 cells; assay type: cell-based; conditions: human, HepG2 cells (hepatocellular carcinoma)
Procedure: Cytotoxicity against mammalian hepatocellular carcinoma cells (HepG2 cells) was determined using the lactate dehydrogenase assay (LDH, Biovision Inc., Milpitas, CA, USA). […] Compound working solutions were prepared from 10 mM stock solutions (100% DMSO) in complete DMEM to a final DMSO (Sigma-Aldrich) conc. of <0.1% (vol/vol). […] Data analysis was performed using GraphPad Prism (version 6) software.

[5] = male, C57/BL6, mouse, plasma, iv 5 mg/kg, parent drug
[6] = male, C57/BL6, mouse, plasma, po 50 mg/kg, parent drug

In the case of `C[C@H]1[C@H](N2CCS(=O)(=O)CC2)O[C@@H]2O[C@@]3(C)CC[C@H]4[C@H](C)CC[C@@H]1[C@@]24OO3` [Artemisone 7, Artemisone], the “Mean iv circulating concentration” value ([1]; 5 h after iv 5 mg/kg artemisone 7) is reported as “blq”, the “Mean iv circulating concentration” value ([1]; 5 h after iv 5 mg/kg artemisox 6) is reported as “blq” and the “Mean po circulating concentration” value ([1]; 5 h after po 50 mg/kg artemiside 5) is reported as “blq”. For the same compound, the “Mean po circulating concentration” value ([1]; 5 h after po 50 mg/kg artemisone 7) was “blq”, the “Mean iv circulating concentration” value ([1]; 7 h after iv 5 mg/kg artemiside 5) was “blq” and the “Mean iv circulating concentration” value ([1]; 7 h after iv 5 mg/kg artemisone 7) was “blq”. The “Mean iv circulating concentration” value ([1]; 7 h after iv 5 mg/kg artemisox 6) was “blq”, the “Mean po circulating concentration” value ([1]; 7 h after po 50 mg/kg artemiside 5) was “blq” and the “Mean po circulating concentration” value ([1]; 7 h after po 50 mg/kg artemisone 7) was “blq”. The “Mean po circulating concentration” value ([1]; 7 h after po 50 mg/kg artemisox 6) was “blq”, the “Mean iv circulating concentration” value ([1]; 24 h after iv 5 mg/kg artemiside 5) was “blq” and the “Mean iv circulating concentration” value ([1]; 24 h after iv 5 mg/kg artemisone 7) was “blq”. The “Mean iv circulating concentration” value ([1]; 24 h after iv 5 mg/kg artemisox 6) was “blq”, the “Mean po circulating concentration” value ([1]; 24 h after po 50 mg/kg artemiside 5) was “blq” and the “Mean po circulating concentration” value ([1]; 24 h after po 50 mg/kg artemisone 7) was “blq”. The “Mean po circulating concentration” value ([1]; 24 h after po 50 mg/kg artemisox 6) was “blq”, the “quantifiable up to, post dose” value ([1]; artemisone itself dosed, iv 5 mg/kg and po 50 mg/kg (Figure 4)) was “up to three” and the t½ ([1]; iv 5 mg/kg, parent drug, mean ± SD, 5 mg/kg) was 23.4 ± 4.8 min. The concentration at 0.08 h ([1]; male, C57/BL6, mouse, plasma, iv, 5 mg/kg, 0.08 h after iv 5 mg/kg artemiside 5, read-out: Mean iv circulating concentration) was 117 nM, the concentration at 0.08 h ([1]; male, C57/BL6, mouse, plasma, iv, 5 mg/kg, 0.08 h after iv 5 mg/kg artemisone 7, read-out: Mean iv circulating concentration) was 3860 nM and the concentration at 0.08 h ([1]; male, C57/BL6, mouse, plasma, iv, 5 mg/kg, 0.08 h after iv 5 mg/kg artemisox 6, read-out: Mean iv circulating concentration) was 1110 nM. For the same compound, the concentration at 0.25 h ([1]; male, C57/BL6, mouse, plasma, iv, 5 mg/kg, 0.25 h after iv 5 mg/kg artemiside 5, read-out: Mean iv circulating concentration) was 247 nM, the concentration at 0.25 h ([1]; male, C57/BL6, mouse, plasma, iv, 5 mg/kg, 0.25 h after iv 5 mg/kg artemisone 7, read-out: Mean iv circulating concentration) was 2510 nM and the concentration at 0.25 h ([1]; male, C57/BL6, mouse, plasma, iv, 5 mg/kg, 0.25 h after iv 5 mg/kg artemisox 6, read-out: Mean iv circulating concentration) was 1400 nM. It also gave a concentration at 0.5 h ([1]; male, C57/BL6, mouse, plasma, iv, 5 mg/kg, 0.5 h after iv 5 mg/kg artemiside 5, read-out: Mean iv circulating concentration) of 270 nM, a concentration at 0.5 h ([1]; male, C57/BL6, mouse, plasma, iv, 5 mg/kg, 0.5 h after iv 5 mg/kg artemisone 7, read-out: Mean iv circulating concentration) of 1720 nM and a concentration at 0.5 h ([1]; male, C57/BL6, mouse, plasma, iv, 5 mg/kg, 0.5 h after iv 5 mg/kg artemisox 6, read-out: Mean iv circulating concentration) of 1250 nM. The concentration at 1 h ([1]; male, C57/BL6, mouse, plasma, iv, 5 mg/kg, 1 h after iv 5 mg/kg artemiside 5, read-out: Mean iv circulating concentration) was 160 nM, the concentration at 1 h ([1]; male, C57/BL6, mouse, plasma, iv, 5 mg/kg, 1 h after iv 5 mg/kg artemisone 7, read-out: Mean iv circulating concentration) was 831 nM and the concentration at 1 h ([1]; male, C57/BL6, mouse, plasma, iv, 5 mg/kg, 1 h after iv 5 mg/kg artemisox 6, read-out: Mean iv circulating concentration) was 659 nM. For the same compound, the concentration at 3 h ([1]; male, C57/BL6, mouse, plasma, iv, 5 mg/kg, 3 h after iv 5 mg/kg artemiside 5, read-out: Mean iv circulating concentration) was 12 nM, the concentration at 3 h ([1]; male, C57/BL6, mouse, plasma, iv, 5 mg/kg, 3 h after iv 5 mg/kg artemisone 7, read-out: Mean iv circulating concentration) was 28 nM and the concentration at 3 h ([1]; male, C57/BL6, mouse, plasma, iv, 5 mg/kg, 3 h after iv 5 mg/kg artemisox 6, read-out: Mean iv circulating concentration) was 7 nM. For the same compound, the concentration at 5 h ([1]; male, C57/BL6, mouse, plasma, iv, 5 mg/kg, 5 h after iv 5 mg/kg artemiside 5, read-out: Mean iv circulating concentration) was 5 nM, the half-life ([1]; male, C57/BL6, mouse, plasma, iv, 5 mg/kg, iv 5 mg/kg, parent drug, mean ± SD) was 24 min and the concentration at 0.08 h ([1]; male, C57/BL6, mouse, plasma, po, 50 mg/kg, 0.08 h after po 50 mg/kg artemiside 5, read-out: Mean po circulating concentration) was 1000 nM. It also gave a concentration at 0.08 h ([1]; male, C57/BL6, mouse, plasma, po, 50 mg/kg, 0.08 h after po 50 mg/kg artemisone 7, read-out: Mean po circulating concentration) of 1630 nM, a concentration at 0.08 h ([1]; male, C57/BL6, mouse, plasma, po, 50 mg/kg, 0.08 h after po 50 mg/kg artemisox 6, read-out: Mean po circulating concentration) of 3640 nM and a concentration at 0.25 h ([1]; male, C57/BL6, mouse, plasma, po, 50 mg/kg, 0.25 h after po 50 mg/kg artemiside 5, read-out: Mean po circulating concentration) of 1390 nM. It also gave a concentration at 0.25 h ([1]; male, C57/BL6, mouse, plasma, po, 50 mg/kg, 0.25 h after po 50 mg/kg artemisone 7, read-out: Mean po circulating concentration) of 1520 nM, a concentration at 0.25 h ([1]; male, C57/BL6, mouse, plasma, po, 50 mg/kg, 0.25 h after po 50 mg/kg artemisox 6, read-out: Mean po circulating concentration) of 3530 nM and a concentration at 0.5 h ([1]; male, C57/BL6, mouse, plasma, po, 50 mg/kg, 0.5 h after po 50 mg/kg artemiside 5, read-out: Mean po circulating concentration) of 1790 nM. For the same compound, the concentration at 0.5 h ([1]; male, C57/BL6, mouse, plasma, po, 50 mg/kg, 0.5 h after po 50 mg/kg artemisone 7, read-out: Mean po circulating concentration) was 1140 nM, the concentration at 0.5 h ([1]; male, C57/BL6, mouse, plasma, po, 50 mg/kg, 0.5 h after po 50 mg/kg artemisox 6, read-out: Mean po circulating concentration) was 3690 nM and the concentration at 1 h ([1]; male, C57/BL6, mouse, plasma, po, 50 mg/kg, 1 h after po 50 mg/kg artemiside 5, read-out: Mean po circulating concentration) was 1670 nM. For the same compound, the concentration at 1 h ([1]; male, C57/BL6, mouse, plasma, po, 50 mg/kg, 1 h after po 50 mg/kg artemisone 7, read-out: Mean po circulating concentration) was 357 nM, the concentration at 1 h ([1]; male, C57/BL6, mouse, plasma, po, 50 mg/kg, 1 h after po 50 mg/kg artemisox 6, read-out: Mean po circulating concentration) was 3200 nM and the concentration at 3 h ([1]; male, C57/BL6, mouse, plasma, po, 50 mg/kg, 3 h after po 50 mg/kg artemiside 5, read-out: Mean po circulating concentration) was 179 nM. For the same compound, the concentration at 3 h ([1]; male, C57/BL6, mouse, plasma, po, 50 mg/kg, 3 h after po 50 mg/kg artemisone 7, read-out: Mean po circulating concentration) was 12 nM, the concentration at 3 h ([1]; male, C57/BL6, mouse, plasma, po, 50 mg/kg, 3 h after po 50 mg/kg artemisox 6, read-out: Mean po circulating concentration) was 48 nM and the concentration at 5 h ([1]; male, C57/BL6, mouse, plasma, po, 50 mg/kg, 5 h after po 50 mg/kg artemisox 6, read-out: Mean po circulating concentration) was 7 nM. The half-life ([1]; male, C57/BL6, mouse, plasma, po, 50 mg/kg, po 50 mg/kg, parent drug, mean ± SD) was 23.4 ± 3 min, the clearance ([1]; male, C57/BL6, mouse, plasma, iv 5 mg/kg) was 88.3 mL/min/kg and the AUC(0-inf) [1, 5] was 2.5 ± 0.6 µM·h. The MRT last ([1]; male, C57/BL6, mouse, plasma, iv 5 mg/kg, parent drug, 0-last up to 7 h) was 33.6 ± 4.2 min, the AUC(0-t) [1, 5] was 2.4 ± 0.6 µM·h and the Vd ([1]; male, C57/BL6, mouse, plasma, iv 5 mg/kg, read-out: Vss) was 3 ± 0.5 L/kg. For the same compound, the bioavailability ([1]; male, C57/BL6, mouse, plasma, po 50 mg/kg vs iv 5 mg/kg, read-out: F (bioavailability)) was 4.9 ± 1.7%, the Cmax [1, 6] was 1700 ± 400 nM and the MRT last [1, 6] was 32.4 ± 7.8 min. The AUC(0-t) [1, 6] was 1.1 ± 0.1 µM·h, the “MAT (mean absorption time = MRTpo–MRTiv)” value ([1]; po 50 mg/kg) was 0 h and the “P. yoelii ED90 po” value ([2]; Peters four-day test, mice, oral, ref S4 (24)) was 5.0 mg/kg. The “P. yoelii ED90 sc” value ([2]; Peters four-day test, mice, subcutaneous, ref S4 (24)) was 3.9 mg/kg, the “P. yoelii artesunate index sc” value ([2]; ref S4) was 5.6 and the EC50 (Toxoplasma gondii (Tg)) was 120 nM. The “P. berghei ED90 po” value ([3]; Peters four-day test, mice, oral daily day 0-3, ref S4 (24)) was 3.1 mg/kg, the “P. berghei ED90 sc” value ([3]; Peters four-day test, mice, subcutaneous daily day 0-3, ref S4 (24)) was 1.5 mg/kg and the “P. berghei artesunate index po (ED90 artesunate/ED90 compound)” value ([3]; ref S4) was 2.3. The “P. berghei artesunate index sc (ED90 artesunate/ED90 compound)” value ([3]; ref S4) was 3.2 and the IC50 at 24 h [4] was over 50000 nM.
